Measurements as given in US12473289B2, “Heterocyclic compounds as delta-5 desaturase inhibitors and methods of use” (Amgen Inc., priority 2019, dated 2025).

The molecules below were run against Delta-5-Desaturase (D5D) (Homo sapiens (Human), UniProt O60427) (assay: In vitro measurement of Delta-5-Desaturase inhibitory activity using DGLA-CoA and Arachidonyl-CoA mass spectrometric assays). Conditions: membrane preparations of D5D-overexpressing HEK293 6E cells; averaged over at least two independent runs.
Chain of Delta-5-Desaturase (D5D) (O60427 whole entry, species assumed): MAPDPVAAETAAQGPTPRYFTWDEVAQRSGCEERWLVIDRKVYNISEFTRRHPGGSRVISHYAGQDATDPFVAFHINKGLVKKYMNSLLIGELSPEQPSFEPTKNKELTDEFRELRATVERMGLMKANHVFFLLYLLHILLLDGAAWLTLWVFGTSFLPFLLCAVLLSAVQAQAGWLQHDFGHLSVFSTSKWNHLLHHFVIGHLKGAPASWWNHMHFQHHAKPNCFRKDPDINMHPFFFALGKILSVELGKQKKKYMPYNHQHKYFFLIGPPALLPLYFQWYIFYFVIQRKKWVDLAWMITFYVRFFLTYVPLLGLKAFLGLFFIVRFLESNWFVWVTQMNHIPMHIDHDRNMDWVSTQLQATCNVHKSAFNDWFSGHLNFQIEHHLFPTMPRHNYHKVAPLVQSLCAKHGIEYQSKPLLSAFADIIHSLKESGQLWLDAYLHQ
Assay type: biochemical
Method in brief: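 Membranes from D5D-overexpressing HEK293 6E cells (10 μg/mL final) in Tris pH 7.5 with MgCl2, octyl glucoside and TCEP were mixed 1:1 with substrate solution (0.01 mM DGLA, 0.25 mM NADH, 0.25 mM ATP, 0.05 mM CoA) for 1 h at ambient temperature. RapidFire SPE-MS/MS MRM; IC50 by 4-parameter fit, ≥2 runs.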

| SMILES | IC50 |
| --- | --- |
| Cc1cnn2c(=O)c(-c3cnn(CC(F)(F)C(F)(F)F)c3)c(C(F)(F)F)nc2c1 [Example 39-40, 8-methyl-3-[1-(2,2,3,3,3-pentafluoropropyl)-1H-pyrazol-4-yl]-2-(trifluoromethyl)-4H-pyrimido[1,2-b]pyridazin-4-one] | 67 nM |
| COc1cnn2c(=O)c(-c3cnn(CC4CC(F)(F)C4)c3)c(C(F)(F)F)nc2c1 [Example 39-55, 3-{1-[(3,3-difluorocyclobutyl)methyl)-1H-pyrazol-4-yl}-8-methoxy-2-(trifluoromethyl)-4H-pyrimido[1,2-b]pyridazin-4-one] | 748 nM |
| COc1ccn2c(=O)c(-n3cnc(CCC(F)(F)F)c3)c(C(F)(F)F)nc2c1 [Example 59, 8-Methoxy-2-(trifluoromethyl)-3-[4-(3,3,3-trifluoropropyl)-1H-imidazol-1-yl]-4H-pyrido[1,2-a]pyrimidin-4-one] | 365 nM |
| COc1cnn2c(=O)c(-c3cnn(CC(F)(F)C(F)(F)F)c3)c(C(F)(F)F)nc2c1 [Example 34, 8-Methoxy-3-[1-(2,2,3,3,3-pentafluoropropyl)-1H-pyrazol-4-yl]-2-(trifluoromethyl)-4H-pyrimido[1,2-b]pyridazin-4-one] | 118 nM |
| O=c1c(-c2cnn(CC(F)(F)C(F)(F)F)c2)c(C(F)(F)F)nc2n1CCOC2 [Example 39-34, 3-[1-(2,2,3,3,3-pentafluoropropyl)-1H-pyrazol-4-yl]-2-(trifluoromethyl)-4H,6R,7H,9H-pyrimido[2,1-c][1,4]oxazin-4-one] | 30.2 nM |
| COc1ccn2c(=O)c(-c3cnn(C[C@H]4CC4(F)F)c3)c(C(F)(F)F)nc2c1 [Example 69, 3-(1-{[(1R)-2,2-Difluorocyclopropyl]methyl}-1H-pyrazol-4-yl)-8-methoxy-2-(trifluoromethyl)-4H-pyrido[1,2-a]pyrimidin-4-one] | 18.2 nM |
| O=c1ccn2c(=O)c(-c3ccc(OCC(F)(F)F)c(F)c3)c(C(F)(F)F)nc2[nH]1 [Example 10-2, 7-(3-fluoro-4-(2,2,2-trifluoroethoxy)phenyl)-8-(trifluoromethyl)-2H-pyrimido[1,2-a]pyrimidine-2,6(1H)-dione] | 328 nM |
| O=c1c(-c2cnn(CC(F)(F)C(F)(F)F)c2)c(C(F)(F)F)nc2ccc(C3CC3)cn12 [Example 39-21, 7-cyclopropyl-3-[1-(2,2,3,3,3-pentafluoropropyl)-1H-pyrazol-4-yl]-2-(trifluoromethyl)-4H-pyrido[1,2-a]pyrimidin-4-one] | 110 nM |
| COc1ccn2c(=O)c(-c3ccc(CC#N)cc3)c(C(F)(F)F)nc2c1 [Example 1-2, (4-(8-methoxy-4-oxo-2-(trifluoromethyl)-4H-pyrido[1,2-a]pyrimidin-3-yl)phenyl)acetonitrile] | 305 nM |
| O=c1c(-c2cnn(C3CC3)c2)c(C(F)(F)F)nc2ccccn12 [Example 5-3, 3-(1-cyclopropyl-1H-pyrazol-4-yl)-2-(trifluoromethyl)-4H-pyrido[1,2-a]pyrimidin-4-one] | 5190 nM |
| COc1ccn2c(=O)c(-c3ccc(OCC(F)(F)F)c(F)c3)c(C(F)F)nc2c1 [Example 1-12, 2-(difluoromethyl)-3-(3-fluoro-4-(2,2,2-trifluoroethoxy)phenyl)-8-methoxy-4H-pyrido[1,2-a]pyrimidin-4-one] | 9.9 nM |
| [2H]C([2H])([2H])Oc1ccn2c(=O)c(-c3ccc(OCC4CC4)cc3)c(C(F)(F)F)nc2c1 [Example 1-65, 3-(4-(cyclopropylmethoxy)phenyl)-8-(methyloxy-d3)-2-(trifluoromethyl)-4H-pyrido[1,2-a]pyrimidin-4-one] | 3.2 nM |
| COc1cc2nc(C(F)(F)F)c(-c3cnn(CC(F)(F)C(F)(F)F)c3)c(=O)n2cn1 [Example 39-10, 8-methoxy-3-[1-(2,2,3,3,3-pentafluoropropyl)-1H-pyrazol-4-yl]-2-(trifluoromethyl)-4H-[1,3]diazino[1,6-a]pyrimidin-4-one] | 6.3 nM |
| Cc1ccc2nc(C(F)(F)F)c(-c3cnc(OCC(F)(F)F)nc3)c(=O)n2n1 [Example 39-36, 7-methyl-3-[2-(2,2,2-trifluoroethoxy)pyrimidin-5-yl]-2-(trifluoromethyl)-4H-pyrimido[1,2-b]pyridazin-4-one] | > 67000 nM |
| COc1ccn2c(=O)c(-c3cnn(CC(F)(F)F)c3)c(C(F)(F)F)nc2c1 [Example 1-74, 8-methoxy-3-(1-(2,2,2-trifluoroethyl)-1H-pyrazol-4-yl)-2-(trifluoromethyl)-4H-pyrido[1,2-a]pyrimidin-4-one] | 27.6 nM |
| [2H]C([2H])([2H])Oc1ccn2c(=O)c(-c3cnn(CCCC(F)(F)F)c3)c(C(F)(F)F)nc2c1 [Example 1-63, 8-(methyloxy-d3)-3-(1-(4,4,4-trifluorobutyl)-1H-pyrazol-4-yl)-2-(trifluoromethyl)-4H-pyrido[1,2-a]pyrimidin-4-one] | 28.1 nM |
| COc1ccn2c(=O)c(-c3cnn(C4CC4)c3)c(C(F)(F)F)nc2c1 [Example 49, 3-(1-Cyclopropyl-1H-pyrazol-4-yl)-8-methoxy-2-(trifluoromethyl)-4H-pyrido[1,2-a]pyrimidin-4-one] | 104 nM |

| SMILES | IC50 |
| --- | --- |
| Cn1c(=O)ccn2c(=O)c(-c3cnn(CC(F)(F)C(F)(F)F)c3)c(C(F)(F)F)nc12 [Example 67, 1-Methyl-7-[1-(2,2,3,3,3-pentafluoropropyl)-1H-pyrazol-4-yl]-8-(trifluoromethyl)-1H,2H,6H-[1,3]diazino[1,2-a]pyrimidine-2,6-dione] | 32.5 nM |
| Cc1ccc2nc(C(F)(F)F)c(-c3cnn(CC(F)(F)C(F)(F)F)c3)c(=O)n2c1 [Example 39-19, 7-methyl-3-[1-(2,2,3,3,3-pentafluoropropyl)-1H-pyrazol-4-yl]-2-(trifluoromethyl)-4H-pyrido[1,2-a]pyrimidin-4-one] | 1.7 nM |
| O=c1c(-c2cnc(OCC(F)(F)F)nc2)c(C(F)(F)F)nc2ccc(C3CC3)cn12 [Example 39-20, 7-cyclopropyl-3-[2-(2,2,2-trifluoroethoxy)pyrimidin-5-yl]-2-(trifluoromethyl)-4H-pyrido[1,2-a]pyrimidin-4-one] | > 67000 nM |
| COc1ccn2c(=O)c(-c3ccc(OCC(F)(F)F)cc3)c(C)nc2c1 [Example 1-67, 8-methoxy-2-methyl-3-(4-(2,2,2-trifluoroethoxy)phenyl)-4H-pyrido[1,2-a]pyrimidin-4-one] | 34.2 nM |
| O=c1c(-c2ccc(OCC(F)(F)F)cc2F)c(C(F)(F)F)nc2ccccn12 [Example 5-1, 3-(2-Fluoro-4-(2,2,2-trifluoroethoxy)phenyl)-2-(trifluoromethyl)-4H-pyrido[1,2-a]pyrimidin-4-one] | 12.5 nM |
| O=c1c(-c2cnn(CCC(F)(F)F)c2)c(C(F)(F)F)nc2ccc(Cl)cn12 [Example 39-17, 7-chloro-2-(trifluoromethyl)-3-[1-(3,3,3-trifluoropropyl)-1H-pyrazol-4-yl]-4H-pyrido[1,2-a]pyrimidin-4-one] | 2.4 nM |
| O=c1c(-c2cnn(CC(F)(F)C(F)(F)F)c2)c(C(F)(F)F)nc2cc(Cl)ccn12 [Example 2-6, 8-chloro-3-(1-(2,2,3,3,3-pentafluoropropyl)-1H-pyrazol-4-yl)-2-(trifluoromethyl)-4H-pyrido[1,2-a]pyrimidin-4-one] | 8.2 nM |
| CCCn1cc(-c2c(C(F)(F)F)nc3ccccn3c2=O)cn1 [Example 5-4, 3-(1-propyl-1H-pyrazol-4-yl)-2-(trifluoromethyl)-4H-pyrido[1,2-a]pyrimidin-4-one] | 198 nM |
| O=c1c(-c2ccc(OCC(F)(F)F)cn2)c(C(F)(F)F)nc2ccccn12 [Example 7-2, 3-(5-(2,2,2-trifluoroethoxy)-2-pyridinyl)-2-(trifluoromethyl)-4H-pyrido[1,2-a]pyrimidin-4-one] | 5230 nM |
| [2H]C([2H])([2H])n1c(=O)ccn2c(=O)c(-c3ccc(OCC(F)(F)F)cc3)c(C(F)(F)F)nc12 [Example 11-1, 1-(Methyl-d3)-7-(4-(2,2,2-trifluoroethoxy)phenyl)-8-(trifluoromethyl)-2H-pyrimido[1,2-a]pyrimidine-2,6(1H)-dione] | 48.2 nM |
| C[S@@+]([O-])c1ccn2c(=O)c(-c3cnn(CC(F)(F)C(F)(F)F)c3)c(C(F)(F)F)nc2c1 [Example 15-6, 8-((R)-methylsulfinyl)-3-(1-(2,2,3,3,3-pentafluoropropyl)-1H-pyrazol-4-yl)-2-(trifluoromethyl)-4H-pyrido[1,2-a]pyrimidin-4-one] | 173 nM |
| Cc1cnc2nc(C(F)(F)F)c(-c3cnn(CC(F)(F)C(F)(F)F)c3)c(=O)n2c1 [Example 40-2, 7-methyl-3-[1-(2,2,3,3,3-pentafluoropropyl)-1H-pyrazol-4-yl]-2-(trifluoromethyl)-4H-[1,3]diazino[1,2-a]pyrimidin-4-one] | 51.8 nM |
| COc1ccn2c(=O)c(-c3ccc(OC(F)(F)F)cc3)c(C(F)(F)F)nc2c1 [Example 1-49, 8-methoxy-3-(4-(trifluoromethoxy)phenyl)-2-(trifluoromethyl)-4H-pyrido[1,2-a]pyrimidin-4-one] | 5.4 nM |
| CC(C)c1ccn2c(=O)c(-c3ccc(OCC(F)(F)F)cc3)c(C(F)(F)F)nc2c1 [Example 1-32, 8-(2-propanyl)-3-(4-(2,2,2-trifluoroethoxy)phenyl)-2-(trifluoromethyl)-4H-pyrido[1,2-a]pyrimidin-4-one] | 421 nM |
| CCc1nc2cc(OC)ccn2c(=O)c1-c1cnn(CC(F)(F)C(F)(F)F)c1 [Example 3-1, 2-Ethyl-8-methoxy-3-(1-(2,2,3,3,3-pentafluoropropyl)-1H-pyrazol-4-yl)-4H-pyrido[1,2-a]pyrimidin-4-one] | 53.9 nM |
| COc1cn2c(=O)c(-c3cnn(CC(F)(F)C(F)(F)F)c3)c(C(F)(F)F)nc2cn1 [Example 39-37, 7-methoxy-3-[1-(2,2,3,3,3-pentafluoropropyl)-1H-pyrazol-4-yl]-2-(trifluoromethyl)-4H-pyrazino[1,2-a]pyrimidin-4-one] | 61 nM |
